Like-named read-outs stand apart in the source and are kept apart here.
Biological target: T1, GluN1/GluN2B NMDA receptors (UniProt P35439+Q01097)
T1 construct: expressed in transfected cells; host or cells: Xenopus laevis oocytes (nuclear cDNA injection)
Test: TEVC electrophysiology on Xenopus oocytes expressing wt GluN1/GluN2B NMDARs
Format: cell-based, rat GluN1, mouse GluN2B
Details: for Relative current for theoretical DRC 9% trans / Relative current for theoretical DRC 18% trans / remaining activity at 0.03 µM / remaining activity at 0.1 µM / remaining activity at 0.3 µM / remaining activity at 2 µM: GluN1/GluN2B wt; for Relative current for theoretical DRC 9% trans: theoretical for 350 nm PSS; for Relative current for theoretical DRC 18% trans: theoretical for 365 nm PSS; for remaining activity at 0.03 µM / remaining activity at 0.1 µM / remaining activity at 0.3 µM / remaining activity at 2 µM: Sup. Fig. 3F, read-out: Relative current (IOpto/I0); for remaining activity at 0.03 µM: [OptoNAM-3] 0.03 µM; for remaining activity at 0.1 µM: [OptoNAM-3] 0.1 µM
Source text: The activity of OptoNAM-3 was functionally monitored by electrophysiology on Xenopus oocytes (see Methods). To assess the light-dependent effect, we tested the activities of the dark PSS (mostly trans) and the UV PSS (mostly cis, see above) separately. For each concentration, we prepared a solution divided into two samples: one in which the compound was kept in the dark for the duration of the experiment (dark PSS state); and the other that was preilluminated with either 350 or 365 nm light (350 or 365 nm PSS) and then kept away from the light for the duration of the experiment in order to avoid photoisomerization of the compounds by ambient light (see Methods). […] We generated dose–response curves of OptoNAM-3 dark and UV PSS on wild-type (wt) GluN1/GluN2B NMDA receptors (Figure 3A) in the presence of saturating concentrations of agonists (100 μM glutamate and glycine).
We used cDNA coding for rat GluN1–1a (named GluN1 herein) (GenBank: U08261.1), rat GluN2A (GenBank: D13211.1), mouse GluN2B (GenBank: D10651.2), rat GluA1 flop (GenBank: M36418.2), and rat Myc-GluA2(Q)-flip (GenBank: AF164344.1) cloned into pcDNA3-based expression plasmids. GluK2 (GenBank: Z11548.1) corresponds to the fully RNA-edited version.[80] The GluN2B-ΔNTD construct is from ref[45] and GluN2B–N615K is from ref[81]. Single mutants GluN2B-Q110G and GluN1-L135H were from ref[19]. The GluA2 cDNA contains a Myc tag ([…]) fused between the signal peptide and the N-terminus sequences, and the GluA2 subunit is […] for its Q/R/N site (GluA2(Q)) to allow permeation of homomeric GluA2 receptors.[2] cDNAs coding for rat GluN2C (GenBank: M91563.1) and GluN2D subunits (GenBank: L31611.1) were in prK5 plasmids.
Oocytes from Xenopus laevis were used for heterologous expression of recombinant NMDA receptors studied using a two-electrode voltage clamp (TEVC). Female Xenopus laevis were housed and ovary bags harvested according to the European Union guidelines (husbandry authorizations #C75–05–31 and #D75–05–31; project authorizations #05137.02; and Apafis #28867–2020121814485893). Fragments of ovary bags were also purchased from the “Centre de Ressources Biologiques Xenopes” (now TEFOR, Paris Saclay, France) and from the European Xenopus Resource Center (EXRC, Portsmouth, UK). Xenopus laevis oocytes were harvested and prepared as previously described in ref[82].
Expression of recombinant NMDA receptors was obtained by oocyte nuclear coinjection of 37 nL of a mixture of cDNAs (at 30 ng/μL) coding for GluN1–1a and various GluN2 subunits (ratio 1:1). The protocol in ref[43] was followed for the expression of GluN1/GluN2A/GluN2B triheteromers. The oocytes were transferred in 96-well plates filled with Barth solution (in mM: 88 NaCl, 1 KCl, 0.33 Ca(NO3)2, 0.41 CaCl2, 0.82 MgSO4, 2.4 NaHCO3, and 7.5 HEPES, pH adjusted to 7.3 with NaOH), supplemented with gentamicin ([…]) and 50 μM APV, a selective NMDA receptor antagonist. Plates were then stored at 18 °C for 24 h for GluN1/GluN2A expression and for 48––72 h for the expression of GluN1/Glu2B, GluN1/GluN2A/GluN2B, and mutants.
TEVC recordings were performed 1–3 days following injection. TEVC recordings were performed using an Oocyte Clamp amplifier OC-725 (Warner Instruments) and computer-controlled via a 1440A Digidata (Molecular Devices). Currents were sampled at 100 Hz and low-pass-filtered at 20 Hz using an 8-pole Bessel filter (900 Series, Frequency Devices Inc.).

[1] = OptoNAM-3 dark PSS (trans) + 0.2 µM ifenprodil
[2] = OptoNAM-3 dark PSS (trans), no ifenprodil
[3] = preilluminated in solution, Xenopus oocytes

T1 sequence (Q01097 27-1482, other chains not shown): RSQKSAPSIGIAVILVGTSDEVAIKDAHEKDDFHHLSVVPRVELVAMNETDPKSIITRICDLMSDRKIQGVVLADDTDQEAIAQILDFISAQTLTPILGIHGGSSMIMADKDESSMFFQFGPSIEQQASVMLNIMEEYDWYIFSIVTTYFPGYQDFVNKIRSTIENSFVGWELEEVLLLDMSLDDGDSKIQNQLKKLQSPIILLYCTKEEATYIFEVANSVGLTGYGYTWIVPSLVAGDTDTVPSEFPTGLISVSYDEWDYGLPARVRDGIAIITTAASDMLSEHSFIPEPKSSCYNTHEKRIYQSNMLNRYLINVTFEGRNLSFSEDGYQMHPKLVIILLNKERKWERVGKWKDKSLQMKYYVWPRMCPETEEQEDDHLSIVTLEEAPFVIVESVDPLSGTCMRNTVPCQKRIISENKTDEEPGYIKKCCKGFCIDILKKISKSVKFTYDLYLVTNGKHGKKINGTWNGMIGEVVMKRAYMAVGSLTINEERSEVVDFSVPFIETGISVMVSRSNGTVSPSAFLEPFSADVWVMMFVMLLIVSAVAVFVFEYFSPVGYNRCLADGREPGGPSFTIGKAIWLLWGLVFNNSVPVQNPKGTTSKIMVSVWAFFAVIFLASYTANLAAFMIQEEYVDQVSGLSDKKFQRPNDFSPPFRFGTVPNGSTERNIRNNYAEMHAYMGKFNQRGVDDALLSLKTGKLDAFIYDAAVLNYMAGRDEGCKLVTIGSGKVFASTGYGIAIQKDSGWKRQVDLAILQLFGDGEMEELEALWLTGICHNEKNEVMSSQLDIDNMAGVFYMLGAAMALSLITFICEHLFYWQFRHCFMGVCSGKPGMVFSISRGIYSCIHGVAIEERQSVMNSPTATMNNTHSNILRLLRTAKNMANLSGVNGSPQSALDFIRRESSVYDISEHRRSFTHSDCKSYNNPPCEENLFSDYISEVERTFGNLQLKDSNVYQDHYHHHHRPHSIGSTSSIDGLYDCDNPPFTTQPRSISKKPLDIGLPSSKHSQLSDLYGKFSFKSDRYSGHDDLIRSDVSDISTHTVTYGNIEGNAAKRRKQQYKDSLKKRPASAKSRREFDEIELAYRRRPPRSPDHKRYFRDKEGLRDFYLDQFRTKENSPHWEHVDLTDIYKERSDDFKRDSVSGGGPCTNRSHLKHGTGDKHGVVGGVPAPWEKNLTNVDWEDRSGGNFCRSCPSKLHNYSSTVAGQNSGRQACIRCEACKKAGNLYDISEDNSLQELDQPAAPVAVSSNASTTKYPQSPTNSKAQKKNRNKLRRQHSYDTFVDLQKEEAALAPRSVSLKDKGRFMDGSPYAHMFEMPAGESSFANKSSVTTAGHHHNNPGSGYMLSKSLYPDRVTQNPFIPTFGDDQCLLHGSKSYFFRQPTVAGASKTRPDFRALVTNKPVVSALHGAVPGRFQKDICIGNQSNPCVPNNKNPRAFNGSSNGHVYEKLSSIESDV

Relative current for theoretical DRC 9% trans ([OptoNAM-3] 1 µM): 0.775
Relative current for theoretical DRC 9% trans ([OptoNAM-3] 2 µM): 0.656
Relative current for theoretical DRC 9% trans ([OptoNAM-3] 3 µM): 0.570
Relative current for theoretical DRC 9% trans ([OptoNAM-3] 5 µM): 0.452
Relative current for theoretical DRC 18% trans ([OptoNAM-3] 0.025 µM): 0.980
Relative current for theoretical DRC 18% trans ([OptoNAM-3] 0.05 µM): 0.965
Relative current for theoretical DRC 18% trans ([OptoNAM-3] 0.125 µM): 0.924
Relative current for theoretical DRC 18% trans ([OptoNAM-3] 0.22 µM): 0.880
Relative current for theoretical DRC 18% trans ([OptoNAM-3] 0.3 µM): 0.848
Relative current for theoretical DRC 18% trans ([OptoNAM-3] 0.5 µM): 0.775
Relative current for theoretical DRC 18% trans ([OptoNAM-3] 1 µM): 0.656
Relative current for theoretical DRC 18% trans ([OptoNAM-3] 2 µM): 0.500
Relative current for theoretical DRC 18% trans ([OptoNAM-3] 3 µM): 0.416
Relative current for theoretical DRC 18% trans ([OptoNAM-3] 5 µM): 0.307
Relative current for theoretical DRC 18% trans ([OptoNAM-3] 30 µM): 0.073
remaining activity at 0.03 µM [1]: 93.3%
remaining activity at 0.1 µM [1]: 89%
remaining activity at 0.3 µM (OptoNAM-3 dark PSS (trans) + 0.2 µM ifenprodil, [OptoNAM-3] 0.3 µM): 77.3%
remaining activity at 2 µM (OptoNAM-3 dark PSS (trans) + 0.2 µM ifenprodil, [OptoNAM-3] 2 µM): 32.6%
remaining activity at 0.03 µM [2]: 95.1%
remaining activity at 0.1 µM [2]: 84.9%
remaining activity at 0.3 µM (OptoNAM-3 dark PSS (trans), no ifenprodil, [OptoNAM-3] 0.3 µM): 63.5%
remaining activity at 2 µM (OptoNAM-3 dark PSS (trans), no ifenprodil, [OptoNAM-3] 2 µM): 14.7%
Mean Relative current (IOpto/I0) ([OptoNAM-3] 0.025 µM, 365 nm PSS): 0.933
Mean Relative current (IOpto/I0) ([OptoNAM-3] 0.025 µM, dark PSS (trans)): 0.887
Mean Relative current (IOpto/I0) ([OptoNAM-3] 0.050 µM, 365 nm PSS): 0.910
Mean Relative current (IOpto/I0) ([OptoNAM-3] 0.050 µM, dark PSS (trans)): 0.827
Mean Relative current (IOpto/I0) ([OptoNAM-3] 0.125 µM, 350 nm PSS): 0.907
Mean Relative current (IOpto/I0) ([OptoNAM-3] 0.125 µM, 365 nm PSS): 0.912
Mean Relative current (IOpto/I0) ([OptoNAM-3] 0.125 µM, dark PSS (trans)): 0.758
Mean Relative current (IOpto/I0) ([OptoNAM-3] 0.220 µM, 365 nm PSS): 0.880
Mean Relative current (IOpto/I0) ([OptoNAM-3] 0.220 µM, dark PSS (trans)): 0.592
Mean Relative current (IOpto/I0) ([OptoNAM-3] 0.300 µM, 350 nm PSS): 0.918
Mean Relative current (IOpto/I0) ([OptoNAM-3] 0.300 µM, 365 nm PSS): 0.841
Mean Relative current (IOpto/I0) ([OptoNAM-3] 0.300 µM, dark PSS (trans)): 0.581
Mean Relative current (IOpto/I0) ([OptoNAM-3] 0.470 µM, 350 nm PSS): 0.900
Mean Relative current (IOpto/I0) ([OptoNAM-3] 0.500 µM, 365 nm PSS): 0.666
Mean Relative current (IOpto/I0) ([OptoNAM-3] 1.000 µM, 350 nm PSS): 0.860
Mean Relative current (IOpto/I0) ([OptoNAM-3] 1.000 µM, 365 nm PSS): 0.644
Mean Relative current (IOpto/I0) ([OptoNAM-3] 1.000 µM, dark PSS (trans)): 0.307
Mean Relative current (IOpto/I0) ([OptoNAM-3] 2.000 µM, 350 nm PSS): 0.656
Mean Relative current (IOpto/I0) ([OptoNAM-3] 2.000 µM, 365 nm PSS): 0.433
Mean Relative current (IOpto/I0) ([OptoNAM-3] 2.000 µM, dark PSS (trans)): 0.141
Mean Relative current (IOpto/I0) ([OptoNAM-3] 3.000 µM, 350 nm PSS): 0.613
Mean Relative current (IOpto/I0) ([OptoNAM-3] 3.000 µM, 365 nm PSS): 0.375
Mean Relative current (IOpto/I0) ([OptoNAM-3] 3.000 µM, dark PSS (trans)): 0.098
Mean Relative current (IOpto/I0) ([OptoNAM-3] 5.000 µM, 350 nm PSS): 0.446
Mean Relative current (IOpto/I0) ([OptoNAM-3] 5.000 µM, 365 nm PSS): 0.267
Mean Relative current (IOpto/I0) ([OptoNAM-3] 5.000 µM, dark PSS (trans)): 0.092
Mean Relative current (IOpto/I0) ([OptoNAM-3] 30.000 µM, 365 nm PSS): 0.034
Mean Relative current (IOpto/I0) ([OptoNAM-3] 30.000 µM, dark PSS (trans)): 0.00423
IC50 (control curve of the ifenprodil competition experiment, read-out: IC50 in the dark in absence of ifenprodil): 0.46 ± 0.06 µM
increase of IC50 by 0.2 µM ifenprodil (dark): ~ 2 fold
IC50 (dark PSS (trans), 100 µM glutamate + glycine, Xenopus oocytes, read-out: IC50 on GluN1/GluN2B receptors in the dark): 0.38 ± 0.03 µM
IC50 (dark PSS (trans), Xenopus oocytes, read-out: IC50 on GluN1/GluN2B receptors in the dark): 0.38 µM
UV/dark IC50 ratio (350 nm PSS vs dark) [3]: 11.5 fold
UV/dark IC50 ratio (365 nm PSS vs dark) [3]: 4.5 fold
IC50 (range over HEK cells and Xenopus oocytes, read-out: IC50 in the dark (trans isomer)): 0.15 to 0.38 µM
activity of the cis isomer on GluN1/GluN2B NMDARs (theoretical dose-response curve of a pure cis population calculated from 365 and 350 nm PSS): no inhibitory activity
SMILES: c1ccc(/N=N/c2ccc(CCNc3ccncc3)cc2)cc1 [OptoNAM-3, (E)-N-(4-(Phenyldiazenyl)phenethyl)pyridin-4-amine]

Reference: article PMC11413854, “Reversible Control of Native GluN2B-Containing NMDA Receptors with Visible Light” (ACS Chemical Neuroscience, 2024)
